The source of these data is patent US9975861B2, “Dual inhibitor compounds for use in the treatment of neurodegenerative disorders and alzheimer's disease” (FONDAZIONE ISTITUTO ITALIANO DI TECNOLOGIA, priority 2014, dated 2018).

This series relates to glial and neuronal cells. Kind of series: MTT assay, viability of brain cells in primary cultures. In kind it is cell-based, rat. Particulars: 0, 10, 20 and 50 μM for 24 hours; up to 50 μM; microglia, astrocytes, cerebellar granular neurons (FIGS. 4a-4c). The procedure:
Mixed glial cell cultures were prepared from cerebral cortex of newborn Wistar rats (Rattus norvegicus), as previously described [Monti, B.; D'Alessandro, C.; Farini, V.; Bolognesi, A.; Polazzi, E.; Contestabile, A.; Stirpe, F.; Battelli, M. G. In vitro and in vivo toxicity of type 2 ribosome-inactivating proteins lanceolin and stenodactylin on glial and neuronal cells. Neurotoxicology 2007, 28, 637-644]. Briefly, brain tissue was cleaned from meninges, trypsinized for 15 minutes at 37° C. and, after mechanical dissociation, the cell suspension was washed and plated on poly-L-lysine (Sigma-Aldrich, St. Louis, Mo., USA, 10 μg/mL) coated flasks (75 cm^2). Mixed glial cells were cultured for 10-13 days in Basal Medium Eagle (BME, Life technologies Ltd, Paisley, UK) supplemented with 100 mL/L heat-inactivated FBS (Life technologies), 2 mmol/L glutamine (Sigma-Aldrich) and 100 μmol/L gentamicin sulfate (Sigma-Aldrich). […]
Neurotoxicology 2007, 28, 637-44]. […] Following a 20 minutes incubation for CGNs and 2 hours for glial cells at 37° C. in the dark, the MTT precipitate was dissolved in 0.1 M Tris-HCl buffer containing 5% Triton X-100 (all from Sigma-Aldrich) and absorbance was read at 570 nm in a multiplate spectophotometric reader (Bio-Rad).

Take `CCCNC1=NC(c2ccc(F)cc2)NC(=O)N1` (centres unmarked) [Example 6, 4-(4-fluorophenyl)-6-(propylamino)-3,4-dihydro-1,3,5-triazin-2(1H)-one]: the “toxicity in glial and neuronal cells (MTT viability)” value is listed as “did not display any toxicity”.

`CCNC1=NC(c2ccc(F)cc2)NC(=O)N1` (racemic) [Example 3, 6-(ethylamino)-4-(4-fluorophenyl)-3,4-dihydro-1,3,5-triazin-2(1H)-one]: the “toxicity in glial and neuronal cells (MTT viability)” value is “did not display any toxicity”.
